Our source for the cytotoxicity values is ChEMBL document CHEMBL3507680, “University of Dundee, Gates Library screen for HepG2 cell viability”.

A short description of this data set: Human HepG2 cell viability assay in 384 well format. The conditions noted are these: HepG2 cells, read-out: Inhibition. It counts as toxicity, cell-based. Further details: dose 125 nL, time 70.5 hour; cytotoxicity at 70.5 h: concentration not given beside the values.

For the compound `O=C(Cc1cccs1)N1Cc2nc(CN3CCCC3)oc2C1`, the cytotoxicity at 70.5 h is 13%. With `O=C(Cc1cccs1)N1Cc2nc(COCC3CC3)oc2C1`, the cytotoxicity at 70.5 h is 0.985%. Consider `NC(=O)N1CCc2ncc(CNC(=O)CC3CC3)n2CC1`, for which the cytotoxicity at 70.5 h was 1.82%. The result for `CC(C)n1nc(CN2CCCC2=O)c2c1CN(C(=O)c1ccco1)C2` reads -5.68%.

`Cn1ncc2c1C(COCC1CC1)CN(c1ncc(F)cn1)C2` (stereo not given): the cytotoxicity at 70.5 h is -4.28%. Under `Cc1nc(Cn2c3c(ccc2=O)CC(NC(N)=O)CC3)cs1` (stereo not given) stands 5.59%. The result for `CCN1CCOCC2(C1)CN(C(=O)c1c(C)noc1C)CCO2` (stereo not given) reads -3.94%. For the compound `CS(=O)(=O)N1CCO[C@@H]2CN(C(=O)c3ccnnc3)C[C@@H]2C1`, the cytotoxicity at 70.5 h is -2.42%. Under `CS(=O)(=O)N1C[C@H]2CN(CC3CC3)C(=O)[C@H]2C1` stands -2.81%. As to `CCOC1COC2(CCN(c3ncc(C)cn3)CC2)C1` (stereo not given), the cytotoxicity at 70.5 h is -2.14%. Consider `CS(=O)(=O)N1CCO[C@@H]2CN(C(=O)c3cccnc3)C[C@@H]2C1`, for which the cytotoxicity at 70.5 h is -2.16%. As to `CC(=O)N1CCOC2(CCN(C(=O)c3cnoc3C)CC2)C1`, the cytotoxicity at 70.5 h turned out to be 2.68%.

Regarding `Cn1cc(CN2C[C@@H]3[C@@H](C2)OCC(=O)N3Cc2ccncc2)cn1`, the cytotoxicity at 70.5 h was -6.23%. Under `O=C(C1CCC1)N1CCn2c(COc3ncccn3)nnc2C1` stands 1.54%; under `Cc1nc([C@@H]2C[C@@H]3CCN(C(=O)Cc4ccsc4)C[C@H]3O2)no1`, -13.8%; under `COc1ncccc1C(=O)N1CCn2c(COCC3CC3)cnc2C1C` (stereo not given), -0.554%. The result for `O=C(NCCO)c1ccn(-c2ccc3ccccn23)n1` reads 25.4%; that for `CC(C)c1nccc([C@H]2C[C@@H]3CCN(Cc4ccco4)C[C@H]3O2)n1`, -9.27%; that for `COC[C@@H]1CC[C@H]2[C@H](CCN2S(=O)(=O)c2cccc(C)c2)O1`, -11.1%. Under `CC(C)CNC(=O)c1ccc2nnc(C3CCN(S(C)(=O)=O)C3)n2c1` (stereo not given) stands -19.7%; under `O=c1cc(Cn2cncn2)nc2n1CCCN(CC1CC1)C2`, -33%; under `Cc1ccc(CN2CCCn3c(nc(Cn4cncn4)cc3=O)C2)s1`, -19.3%.

With `CS(=O)(=O)N1CCC2(CC1)CC(CC(=O)NC1CC1)c1ccccc12` (stereo not given), the cytotoxicity at 70.5 h is -20.3%. Regarding `Fc1cccc(CN2CCO[C@H]3[C@@H](OCc4ccccn4)CC[C@@H]32)c1`, the cytotoxicity at 70.5 h was -15.5%. Regarding `Cn1cc(CNCC2Cn3nnc(-c4ccccc4)c3CO2)cn1` (stereo not given), the cytotoxicity at 70.5 h is -16.3%. Turning to `Cn1cc(CN2CCC3(CCCN3S(C)(=O)=O)CC2)cn1`, the cytotoxicity at 70.5 h was determined as 12.4%.

Regarding `Cc1ccsc1C(=O)N1Cc2ccccc2C2(CCN(C)CC2)C1`, the cytotoxicity at 70.5 h was -6.4%. Turning to `CCO[C@H]1CO[C@@]2(CCCN(S(=O)(=O)c3ccccc3)C2)C1`, the cytotoxicity at 70.5 h is 1.01%. Regarding `OCCNc1cc(-c2ccccc2)ncn1`, the cytotoxicity at 70.5 h was -1.96%. Consider `OCCNc1cc(-c2ccncc2)ncn1`, for which the cytotoxicity at 70.5 h was 0.654%.

Take `C[C@H](O)CNc1cc(-c2ccccc2)ncn1`: the cytotoxicity at 70.5 h is -0.249%. As to `Cc1ncncc1-c1ccnc(NC(C)C)n1`, the cytotoxicity at 70.5 h was -2.82%.

As to `C[C@H](O)CNc1cc(-c2ccncc2)ncn1`, the cytotoxicity at 70.5 h was -0.809%. On to `Cc1ccc2c(c1)[C@@H](CC(=O)N(C)C)CCO2`, for which the cytotoxicity at 70.5 h is -2.63%. Take `COc1cc(-c2cc(N)ncn2)cc(OC)c1OC`: the cytotoxicity at 70.5 h is -6.28%. With `COc1cc(-c2cc(OC)c(OC)c(OC)c2)ncn1`, the cytotoxicity at 70.5 h was -6.68%. For the compound `COCC(=O)NCC[C@H]1CC(C)(C)Oc2ccccc21`, the cytotoxicity at 70.5 h is -3.02%. The result for `CN(C)c1nccc(NCc2cc(-c3ccco3)n[nH]2)n1` reads -3.1%.

As for `CN1CC(=O)c2sc(NCCc3ccccc3)nc2C1`, the cytotoxicity at 70.5 h was determined as 30%. For the compound `Cc1ccc2c(c1)[C@@H](CC(=O)N1CCN(C)CC1)CCO2`, the cytotoxicity at 70.5 h was determined as 3.15%. For `CNCC[C@H]1CC(C)(C)Oc2ccc(OCC3CC3)cc21`, the cytotoxicity at 70.5 h is 7.09%. As for `O=c1[nH][nH]cc1-c1ccnc(NCCc2ccc(F)cc2)n1`, the cytotoxicity at 70.5 h is -6.1%. The result for `CNCC(=O)Nc1cccc(-c2cnc(NCCO)nc2)c1` reads -1.04%.

`COCCCNc1nc(CNC(C)=O)cc(-c2ccco2)n1`: the cytotoxicity at 70.5 h is -8.32%. Under `CC1(C)C[C@H](CCNC(=O)c2ccncc2)c2ccccc2O1` stands -10%; under `Cc1[nH]c2ccccc2c1-c1ccnc(N[C@@H](CO)C(C)C)n1`, -3.22%; under `CNc1ncc(-c2ccc(NC(=O)[C@@H]3CCCCN3)cc2)cn1`, -1.05%. For `Cc1ncc(-c2ccnc(NCCO)n2)c(C2CCCCC2)n1`, the cytotoxicity at 70.5 h is 21.9%. In the case of `CC1(c2ccccc2)CCC(=O)N(CCN2CCOCC2)C1` (stereo not given), the cytotoxicity at 70.5 h was -5.69%. As to `CN(C(=O)CC1=CCCCC1)C1CCCN(CCc2ccccc2)C1` (stereo not given), the cytotoxicity at 70.5 h was -5.66%. `CCC(=O)Nc1cccc(OCC(=O)N(C)Cc2cc(COC)[nH]n2)c1`: the cytotoxicity at 70.5 h is -4.96%. Take `CC(=O)Nc1ccc(CNCc2cccnc2N(C)C)cc1`: the cytotoxicity at 70.5 h was determined as 1.4%. The result for `Cc1cccc(C2CCCN(C(=O)C3CCN(CC(N)=O)CC3)C2)c1` (stereo not given) reads -17.7%. On to `Cc1ccc(C2(O)CCN(Cc3nnc(-c4cccnc4)o3)CC2)nc1`, for which the cytotoxicity at 70.5 h was -2.19%.

On to `Cc1ccccc1CC1(C(=O)O)CCCN(c2ncccn2)C1` (stereo not given), for which the cytotoxicity at 70.5 h is -7.63%. Consider `NC(=O)Cn1ccnc1C1CCCN(CCSc2ccccc2)C1` (stereo not given), for which the cytotoxicity at 70.5 h is -12.6%. Consider `Cc1cc(F)ccc1OC1(C(=O)O)CCN(Cc2nccn2C)CC1`, for which the cytotoxicity at 70.5 h is -7.09%. Regarding `Cc1ncsc1CN1CC(C)(C2CC2)CC1=O` (stereo not given), the cytotoxicity at 70.5 h was -12.2%. In the case of `Cc1noc(C)c1CN1CCO[C@H]2CNC[C@H]21`, the cytotoxicity at 70.5 h is -6.78%. Take `c1cc(CN2C[C@H](OCC3CCOCC3)[C@H]3COC[C@H]32)co1`: the cytotoxicity at 70.5 h came to 12.4%. For `CN(C)[C@@H]1CN(C(=O)Cc2ccccc2)[C@@H]2CCCO[C@H]12`, the cytotoxicity at 70.5 h came out at 15.5%.

Consider `CN(C)C(=O)CO[C@H]1CN(Cc2nccs2)[C@@H]2COC[C@H]12`, for which the cytotoxicity at 70.5 h is -9.59%.

Turning to `CN(C)[C@@H]1CN(C(=O)Cc2cccs2)[C@@H]2CCCO[C@H]12`, the cytotoxicity at 70.5 h was -5.81%. The result for `COCCN1CCc2ncnc(NC(C)C)c2CC1` reads -5.11%; that for `Cc1cnc(N2CC[C@H]3[C@@H]2CCC(=O)N3c2ccccc2)nc1`, 5.23%. On to `Fc1cnc(N2CCO[C@H]3[C@H](OCCN4CCCC4)CC[C@@H]32)nc1`, for which the cytotoxicity at 70.5 h was -8.48%.

As for `CC(C)CCN1C[C@H]2C[C@H](C(=O)NCC(C)C)[C@@H](C1)O2`, the cytotoxicity at 70.5 h is -2.84%. On to `Cn1cc(-c2ncc3c(c2C(=O)O)CCN(Cc2ccco2)C3)cn1`, for which the cytotoxicity at 70.5 h was -5.93%. Consider `CN(C)C(=O)CO[C@H]1CN(Cc2ccsc2)[C@@H]2COC[C@H]12`, for which the cytotoxicity at 70.5 h is -1.85%. Regarding `O=C(c1cscn1)N1CC[C@@H]2[C@@H]1CCN2CC1CCOC1` (stereo not given in full), the cytotoxicity at 70.5 h was -1.02%.

For `O=C(c1cscn1)N1CC[C@@H]2[C@@H]1CCN2C1CCOCC1`, the cytotoxicity at 70.5 h was -3.43%. As for `COCCNC(=O)[C@@]12CCO[C@@H]1CCN(Cc1c(C)noc1C)C2`, the cytotoxicity at 70.5 h is -5.87%. `Cn1cc(CN2CCC3(CC(=O)N(c4ccc5c(c4)OCO5)C3)C2)cn1` (stereo not given): the cytotoxicity at 70.5 h was -9.01%. In the case of `O=C(c1ccco1)N1C[C@H]2CCCN(Cc3cccs3)[C@H]2C1`, the cytotoxicity at 70.5 h was 7.1%.

In the case of `Cc1cnc(C(=O)N2C[C@@H]3CN(CC4CCCC4)CCO[C@@H]3C2)cn1`, the cytotoxicity at 70.5 h was 25.7%.

On to `CN(C)C(=O)N1C[C@H]2CCC[C@@]2(COc2ccccn2)C1`, for which the cytotoxicity at 70.5 h is -8.44%. `c1cnc(N2CCC3(CCN(CC4CCOC4)C3)CC2)nc1` (stereo not given): the cytotoxicity at 70.5 h was -17.9%. For the compound `Cc1noc(C)c1C(=O)N1C[C@H]2CCC[C@@]2(COc2ccccn2)C1`, the cytotoxicity at 70.5 h was -11.3%. `COc1ccc(CC(=O)N2C[C@@H]3COC[C@]3(CN(C)C)C2)cc1`: the cytotoxicity at 70.5 h was -17.9%. On to `O=C(Nc1cccnc1)[C@H]1C[C@H]2OCC[C@H]2N(C(=O)c2ccsc2)C1`, for which the cytotoxicity at 70.5 h is -15.4%. Take `Cc1oncc1C(=O)NCc1cc(=O)n2c(n1)CN(C)CCC2`: the cytotoxicity at 70.5 h was -14.9%.

Consider `CCC(CC)C(=O)N1CCC2(C1)CN(c1ccccc1)C(=O)CN2C` (stereo not given), for which the cytotoxicity at 70.5 h was -20.2%. Take `O=C(c1ccncc1)N1CCCC2(COCCN(c3ccccc3)C2)C1` (stereo not given): the cytotoxicity at 70.5 h was -16.1%.

As for `Cc1ccc(CN2CCO[C@H]3[C@@H](OCc4cccnc4)CC[C@@H]32)o1`, the cytotoxicity at 70.5 h is -14.9%. Turning to `CCn1ncc2c1C(COC)CN(c1ncc(F)cn1)C2` (stereo not given), the cytotoxicity at 70.5 h is -9.93%. For `Cn1nc(COCC2CC2)c2c1CN(CC1CC1)CC2`, the cytotoxicity at 70.5 h was -0.347%. In the case of `O=C(C1CC1)N1Cc2[nH]nc(COCc3cccnc3)c2C1`, the cytotoxicity at 70.5 h was -0.809%. `CN(C)c1ncc2c(c1C(=O)O)CCN(Cc1ccco1)C2`: the cytotoxicity at 70.5 h is -4.04%. As for `CN(C)C(=O)c1n[nH]c2c1CN(CC1CCC1)C2`, the cytotoxicity at 70.5 h was -1.39%. With `CN(C)C(=O)c1n[nH]c2c1CN(CC1CCCCC1)C2`, the cytotoxicity at 70.5 h is -2.71%. On to `CN(C)[C@@H]1CN(Cc2ccco2)C[C@@H]2CCCO[C@@H]21`, for which the cytotoxicity at 70.5 h was -8.79%.

For the compound `COCC1CC2(CCN(Cc3cnn(C)c3)CC2)CN1C(C)C` (stereo not given), the cytotoxicity at 70.5 h is -15.8%. Consider `COc1ccc(CN2CCC3(CC2)NC(=O)CC3c2ccncc2)cc1` (stereo not given), for which the cytotoxicity at 70.5 h is -7.29%.

`c1cnc(N2CCC3(CCN(CC4CC4)CC3)CC2)nc1`: the cytotoxicity at 70.5 h was -15.1%.

In the case of `Cc1noc(C)c1CN1CCO[C@H]2CN(CC3CC3)C[C@H]21`, the cytotoxicity at 70.5 h was -28.9%.
